Measurements from paper PMC9860708, “Parent-Metabolite Pharmacokinetic Modeling of Formononetin and Its Active Metabolites in Rats after Oral Administration of Formononetin Formulations” (Pharmaceutics, 2022).
Read-outs that look alike come from different tables or passages of the source.

Legend:
[1] = Plasma protein binding assay (ultrafiltration, Centrifree); format: in vitro ADME; settings: male SD rat plasma, n = 3
Experimental: The plasma protein binding of FMN, DZN, DHD and EQL was estimated using Ultra-filtration method using Centrifree® micro-partition system (Amicon Inc., Lexington, MA, USA). The experiment was conducted at concentrations of 50, 150, 500 and 1000 ng/mL (n = 3) for all four compounds in male SD rat plasma. The spiked plasma samples were allowed to equilibrate for at least 15 min before it was put into Centrifree® ultrafiltration tubes. The tubes were centrifuged at 1000× g for 15 min at 37 °C. Then, compound concentrations in the ultrafiltrate buffer (CUF) and plasma in the sample reservoir (Ctotal) were quantitated by the anlytical method described in Section 2.3. The plasma protein binding rate was calculated using the following formula: Plasma protein binding (%)=[…]

[2] = Pharmacokinetic evaluation after oral administration of FMN solution and formulations (non-compartmental analysis); settings: 20 mg/kg FMN, all three groups
Experimental: The animals were maintained in the temperature and humidity range of 25 ± 1 °C and 50 ± 5% RH, respectively, over the acclimation period. To minimize the effects of food on pharmacokinetic profile of isoflavones, the animals were fasted overnight with free access to water.
Animals were allocated equally into 3 groups (5 rats per group). […] The blood samples were immediately centrifuged (10,000× g, 10 min, 4 °C) to obtain plasma samples and was stored at −80 °C.
Determination of the four isoflavones and DZN-d4 (internal standard, IS) in samples were conducted using Acquity UPLC system (Waters Corp., Milford, MA, USA) coupled to Xevo TQ-S triple quadrupole mass spectrometry (Waters Corp., USA) with electrospray (ESI) source. The chromatographic separations of the four isoflavones was performed in a Kinetex C18 column (2.1 × 100 mm, 1.7 μm particle size, Phenomenex, Torrance, CA, USA) at 40 ± 0.5 °C. The mobile phase consisted of water (mobile phase A) and acetonitrile (mobile phase B) with gradient elution at a flow rate of 0.2 mL/min. […] The optimized collision energy of FMN, DZN, DHD, EQL and IS were −22, −38, −22, −15 and −38, respectively. Data acquisition and analysis were achieved using Masslynx 4.1 software (Waters Corp., USA).
The samples were extracted by protein precipitation using methanol. 50 μL of rat samples were added with 10 μL of the IS solution (10 μg/mL of DZN-d4 in 50% methanol) to correct the loss of analytes during sample preparation. 100 μL of methanol was added to the mixed sample, vortexed for 1 min and centrifuged at 15,000× g for 5 min. Then, 5 μL of aliquots were injected into the UPLC-MS/MS system. The method validation was performed according to the FDA guideline for industry bioanalytical method validation.
PK parameters such as the maximum plasma concentration (Cmax) and the time to reach Cmax (Tmax) were determined from plasma concentration-time curve. The linear trapezoidal rule was used to calculate area under the curve to the final measured concentration (AUC0-t), then area from Clast to area expolated to infinity was added to AUC0-t to integrate AUC0-∞. […] The PK analysis was performed using WinNonlin® software (version 8.2, Certara™ Company, Princeton, NJ, USA). Then, a PK model was developed for FMN and its metabolites following oral administration of solution or formulations. The model was implemented in the WinNonlin model with NLME engine and estimated using the naïve-pooled and First Order Conditional Estimation-Extended Least Squares (FOCE-ELS) algorithms. […]

human serum albumin = settings: concentration levels of 3–15 μM DZN, ref Song et al. 23; cited from earlier work
[3] = cited from earlier work
[4] = set-up: method as in PMID 21266188; settings: female rat plasma, cited from earlier work
[5] = set-up: method as in PMID 12714433; settings: humans; cited from earlier work
[6] = oral 20 mg/kg FMN dissolved in 0.5% CMC-Na, male Sprague Dawley rats

O=C1c2ccc(O)cc2OCC1c1ccc(O)cc1 (stereo not shown) [DHD, Dihydrodaidzein]
fraction unbound at 15 min, 50 ng/mL [1]: 0.118
fraction unbound at 15 min, 150 ng/mL [1]: 0.126
fraction unbound at 15 min, 500 ng/mL [1]: 0.12
fraction unbound at 15 min, 1000 ng/mL [1]: 0.132
Detection of analyte in rat plasma after oral administration of FMN [2]: not quantitated

O=c1c(-c2ccc(O)cc2)coc2cc(O)ccc12 [DZN, Daidzein]
fraction unbound at 15 min, 50 ng/mL [1]: 0.0456
fraction unbound at 15 min, 150 ng/mL [1]: 0.0342
fraction unbound at 15 min, 500 ng/mL [1]: 0.0569
fraction unbound at 15 min, 1000 ng/mL [1]: 0.0531
unbound DZN (human serum albumin): 0.889 to 6.398 µM
Detection of analyte in rat plasma after oral administration of FMN [2]: detected

Oc1ccc([C@H]2COc3cc(O)ccc3C2)cc1 [EQL, Equol]
fraction unbound at 15 min, 150 ng/mL [1]: 0.0131
fraction unbound at 15 min, 500 ng/mL [1]: 0.0138
fraction unbound at 15 min, 1000 ng/mL [1]: 0.022
Detection of analyte in rat plasma after oral administration of FMN [2]: not quantitated

COc1ccc(-c2coc3cc(O)ccc3c2=O)cc1 [FMN, Formononetin]
fraction unbound at 15 min, 50 ng/mL [1]: 0.116
fraction unbound at 15 min, 150 ng/mL [1]: 0.0664
fraction unbound at 15 min, 500 ng/mL [1]: 0.145
fraction unbound at 15 min, 1000 ng/mL [1]: 0.082
Time at which the peak plasma concentration was reached ([3]; 2–50 mg/kg FMN orally administered, rats): 0.5 to 1 h
oral bioavailability (F) ([3]; FMN solution dissolved in 0.5% CMC-Na, rats): 21.8%
clearance of FMN ([3]; intravenous administration, rats): 83 mL/min/kg
AUCinf [3, 6]: 0.7577 ± 0.0482 µM·h
Cmax [3, 6]: 302 ± 35.9 nM
Plasma protein binding ([4]; 50 ng/mL): 93.61 ± 0.44%
Plasma protein binding ([4]; 150 ng/mL): 96.14 ± 0.15%
FMN excreted intact [5]: about 25%
Detection of analyte in rat plasma after oral administration of FMN [2]: detected
